Data: PMC5693244 (European journal of medicinal chemistry, 2017)
Blank lines part the entries; values can stand above or below the molecule they belong to.

How the values were obtained:
h-FPR2 [1] = target: T1, h-FPR2 (Homo sapiens, UniProt P25090); settings: previously characterized; ref [33]; cited from earlier work
T1 sequence (P25090 1-351): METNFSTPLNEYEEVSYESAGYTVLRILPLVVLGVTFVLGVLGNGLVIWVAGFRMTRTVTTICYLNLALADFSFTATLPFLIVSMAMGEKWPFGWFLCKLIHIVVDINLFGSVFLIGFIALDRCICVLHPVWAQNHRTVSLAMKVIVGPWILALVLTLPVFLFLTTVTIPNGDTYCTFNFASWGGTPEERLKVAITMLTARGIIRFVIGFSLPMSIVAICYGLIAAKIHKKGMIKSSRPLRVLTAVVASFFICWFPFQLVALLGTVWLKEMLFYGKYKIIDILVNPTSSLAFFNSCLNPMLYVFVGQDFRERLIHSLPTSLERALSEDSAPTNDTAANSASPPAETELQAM

h-FPR2 [2] = target: T1, h-FPR2; assay: Ca2+ mobilization in FPR2-HL60 transfected cells; format: cell-based; settings: for EC50, μM FPR2-HL60 / Agonist character (full/partial) at FPR2: Ca2+ mobilization; for EC50, μM FPR2-HL60: FPR2-HL60 cells
[3] = Stability assays in rat liver microsomes; format: in vitro ADME; settings: pH 7.4, Metabolic stability (% remaining), percent of parent compound remaining after 30-min incubation
[4] = test system: NO production in rat microglial cell cultures; assay: NO release assay; format: cell-based; settings: for Effect on LPS-increased NO level: LPS-stimulated, (S)-10 at 5 μM and 10 μM; for Effect on NO level: basal conditions
[5] = test system: IL-1β production in rat microglial cell cultures; assay: IL-1β ELISA in rat microglial cell cultures; format: cell-based; settings: for Effect on LPS-evoked IL-1β production / Block by WRW4 of effect on IL-1β: LPS-stimulated; for Effect on LPS-evoked IL-1β production: 0.5 to 10 μM; for Block by WRW4 of effect on IL-1β: pre-treatment with FPR2 antagonist WRW4; for Effect on IL-1β production: basal conditions, agonists 0.5 μM-10 μM
[6] = test system: rat primary microglial cells; assay: Lactate dehydrogenase; format: cell-based; settings: for Effect on LPS-induced cell death (LDH release): LPS-stimulated, pre-treatment 1 μM and 5 μM; for Effect on LDH release (cell death) / Effect on LDH release: basal conditions; for Effect on LDH release (cell death): 50 μM; for Effect on LDH release: 0.5–10 μM, 24 h
[7] = test system: TNF-α production in rat microglial cell cultures; assay: TNF-α ELISA in rat microglial cell cultures; format: cell-based; settings: for Effect on LPS-evoked TNF-α production: 0.5 to 10 μM; for Effect on TNF-α production: basal conditions, agonists 0.5 μM-10 μM
[8] = test system: rat primary microglial cells; assay: MTT cell viability test in rat primary microglial cell cultures; format: cell-based; settings: for Effect on metabolic activity (MTT): 0.5–10 μM, 24 h
hCMEC/D3 cells = assay: Bidirectional transport across hCMEC/D3 cell monolayer; format: in vitro ADME, human; settings: 100 μM, 2 h; for PappBA: basolateral-to-apical transport
human neutrophils = assay: Ca2+ mobilization in human neutrophils; format: cell-based
h-FPR1 = target: T2, h-FPR1 (Homo sapiens, UniProt P21462); assay: Ca2+ mobilization in FPR1-HL60 transfected cells; format: cell-based
T2 sequence (P21462 1-350): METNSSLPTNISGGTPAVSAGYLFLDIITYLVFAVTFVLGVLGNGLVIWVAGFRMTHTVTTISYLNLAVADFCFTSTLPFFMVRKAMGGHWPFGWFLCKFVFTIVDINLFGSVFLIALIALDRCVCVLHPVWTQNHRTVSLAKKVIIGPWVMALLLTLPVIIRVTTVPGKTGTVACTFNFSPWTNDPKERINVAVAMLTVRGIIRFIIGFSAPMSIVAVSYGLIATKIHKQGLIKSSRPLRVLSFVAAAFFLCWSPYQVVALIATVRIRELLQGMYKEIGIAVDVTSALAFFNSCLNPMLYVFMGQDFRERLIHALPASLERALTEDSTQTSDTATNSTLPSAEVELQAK

Compound: O=C(Nc1ccc([N+](=O)[O-])cc1)N[C@H](Cc1c[nH]c2ccccc12)C(=O)NCC1(c2ccccc2)CC1 [(R)-6]
Interaction with FPR2 (intrinsic activity) (h-FPR2 [1]): weak FPR2 antagonist

Compound: O=C(Nc1ccccc1)N[C@H](Cc1c[nH]c2ccccc12)C(=O)NCC1(c2ccccc2)CC1 [(R)-9, (R)-3-(1H-Indol-3-yl)-N-[(1-phenylcyclopropyl)methyl]-2-[3-(phenyl)ureido]propanamide]
EC50, μM FPR2-HL60 (h-FPR2 [2]): not able to induce Ca^2+ mobilization

Compound: N#Cc1ccc(C[C@@H](NC(=O)Nc2ccc([N+](=O)[O-])cc2)C(=O)NCC2(c3ccccc3)CC2)cc1 [(R)-10, (R)-3-(4-Cyanophenyl)-2-[3-(4-nitrophenyl)ureido]-N-[(1-phenylcyclopropyl)methyl]propanamide]
Agonist character (full/partial) at FPR2 (h-FPR2 [2]): full agonists

Compound: O=C(Nc1ccc([N+](=O)[O-])cc1)N[C@H](Cc1cccnc1)C(=O)NCC1(c2ccccc2)CC1 [(R)-11, (R)-2-[3-(4-Nitrophenyl)ureido]-N-[(1-phenylcyclopropyl)methyl]-3-(3-pyridinyl)-propanamide]
Agonist character (full/partial) at FPR2 (h-FPR2 [2]): partial agonists | Effect on LPS-increased NO level [4]: no effect was observed | Effect on NO level [4]: did not induce any change in NO level | Effect on LPS-evoked IL-1β production [5]: effectively decrease LPS-evoked cytokine production | Block by WRW4 of effect on IL-1β [5]: able to block the effect | Effect on IL-1β production [5]: did not induce any change | Effect on LPS-induced cell death (LDH release) [6]: effectively blocked LPS-induced cell death processes | Effect on LDH release (cell death) [6]: significant increase in death processes | Effect on LDH release [6]: None of the compounds induced significant effects | Effect on LPS-evoked TNF-α production ([7]; LPS-stimulated): effectively decrease LPS-evoked cytokine production | Effect on TNF-α production [7]: did not induce any change | Effect on metabolic activity (MTT) in LPS-stimulated cells [8]: no effect was observed on metabolic activity | Effect on metabolic activity (MTT) ([8]; basal conditions): None of the compounds induced significant effects | PappAB (hCMEC/D3 cells; apical-to-basolateral transport): 11924.5 ×10⁻⁶ cm/s | PappBA (hCMEC/D3 cells): 43754.4 ×10⁻⁶ cm/s | EC50, μM Neutrophils (human neutrophils): submicromolar range

Compound: Cc1ccc(C2(CNC(=O)[C@@H](Cc3ccc(C#N)cc3)NC(=O)Nc3ccc(F)cc3)CC2)cc1F [(R)-15, (R)-3-(4-Cyanophenyl)-N-[[1-(3-fluoro-4-methylphenyl)cyclopropyl]methyl]-2-[3-(4-fluorophenyl)ureido]propanamide]
remaining at 0.5 h, 10 μM [3]: > 20%

Compound: N#Cc1ccc(C[C@H](NC(=O)Nc2ccc([N+](=O)[O-])cc2)C(=O)NCC2(c3ccccc3)CC2)cc1 [(S)-10, (S)-3-(4-Cyanophenyl)-2-[3-(4-nitrophenyl)ureido]-N-[(1-phenylcyclopropyl)methyl]propanamide]
Agonist character (full/partial) at FPR2 (h-FPR2 [2]): full agonists | Increase in agonist potency compared to (S)-6 (h-FPR2 [2]; FPR2, (S)-10 compared to (S)-6): 10 fold | Effect on LPS-increased NO level [4]: significantly attenuated | Effect on NO level [4]: did not induce any change in NO level | Effect on LPS-evoked IL-1β production [5]: effectively decrease LPS-evoked cytokine production | Block by WRW4 of effect on IL-1β [5]: did not abolish the observed effect | Effect on IL-1β production [5]: did not induce any change | Effect on LPS-induced cell death (LDH release) [6]: effectively blocked LPS-induced cell death processes | Effect on LDH release (cell death) [6]: significant increase in death processes | Effect on LDH release [6]: None of the compounds induced significant effects | Effect on LPS-evoked TNF-α production ([7]; LPS-stimulated): effectively decrease LPS-evoked cytokine production | Block by WRW4 of effect on TNF-α ([7]; LPS-stimulated, pre-treatment with FPR2 antagonist WRW4): did not abolish the observed effect | Effect on TNF-α production [7]: did not induce any change | Effect on metabolic activity (MTT) in LPS-stimulated cells [8]: no effect was observed on metabolic activity | Effect on conversion of MTT dye ([8]; basal conditions, 50 μM): decreased the conversion of MTT dye | Effect on metabolic activity (MTT) ([8]; basal conditions): None of the compounds induced significant effects | PappBA (hCMEC/D3 cells): 25303.3 ×10⁻⁶ cm/s

The remaining lines, values ahead:

EC50, μM FPR2-HL60 (h-FPR2 [2]): not able to induce Ca^2+ mobilization | remaining at 0.5 h, 10 μM [3]: 4%
Compound: O=C(Nc1ccc(F)cc1)N[C@H](Cc1c[nH]c2ccccc12)C(=O)NCC1(c2ccccc2)CC1 [(R)-8, (R)-2-[3-(4-Fluorophenyl)ureido]-3-(1H-indol-3-yl)-N-[(1-phenylcyclopropyl)methyl]propanamide]

Agonist character (full/partial) at FPR1 (h-FPR1): potent FPR1 full agonists
Compound: COc1ccc(NC(=O)N[C@H](Cc2ccc(C#N)cc2)C(=O)NCC2(c3ccc(F)c(Cl)c3)CC2)cc1 [(R)-16, (R)-N-[[1-(3-Chloro-4-fluorophenyl)cyclopropyl]methyl]-3-(4-cyanophenyl)-2-[3-(4-methoxyphenyl)ureido]propanamide]

remaining at 0.5 h, 10 μM [3]: > 20%
Compound: N#Cc1ccc(C[C@@H](NC(=O)Nc2ccc(F)cc2)C(=O)NCC2(c3ccc(F)c(Cl)c3)CC2)cc1 [(R)-17, (R)-3-(4-Cyanophenyl)-N-[[1-(3-chloro-4-fluorophenyl)cyclopropyl]methyl]-2-[3-(4-fluorophenyl)ureido]propanamide]

Agonist character (full/partial) at FPR2 (h-FPR2 [2]): full agonist | Agonist character (full/partial) at FPR1 (h-FPR1): full agonist
Compound: COc1ccc(NC(=O)N[C@@H](Cc2c[nH]c3ccccc23)C(=O)NCC2(c3ccccc3)CC2)cc1 [(S)-7, (S)-3-(1H-Indol-3-yl)-2-[3-(4-methoxyphenyl)ureido]-N-[(1-phenylcyclopropyl)methyl] propanamide]

Agonist character (full/partial) at FPR2 (h-FPR2 [2]): partial agonists
Compound: O=C(Nc1ccc(F)cc1)N[C@@H](Cc1c[nH]c2ccccc12)C(=O)NCC1(c2ccccc2)CC1 [(S)-8, (S)-2-[3-(4-Fluorophenyl)ureido]-3-(1H-indol-3-yl)-N-[(1-phenylcyclopropyl)methyl]propanamide]

Agonist character (full/partial) at FPR2 (h-FPR2 [2]): partial agonists
Compound: O=C(Nc1ccccc1)N[C@@H](Cc1c[nH]c2ccccc12)C(=O)NCC1(c2ccccc2)CC1 [(S)-9, (S)-3-(1H-Indol-3-yl)-N-[(1-phenylcyclopropyl)methyl]-2-[3-(phenyl)ureido]propanamide]

Agonist character (full/partial) at FPR2 (h-FPR2 [2]): partial agonists | EC50, μM FPR1-HL60 (h-FPR1; FPR1-HL60 cells): low micromolar range
Compound: O=C(Nc1ccc([N+](=O)[O-])cc1)N[C@@H](Cc1cccnc1)C(=O)NCC1(c2ccccc2)CC1 [(S)-11, (S)-2-[3-(4-Nitrophenyl)ureido]-N-[(1-phenylcyclopropyl)methyl]-3-(3-pyridinyl)-propanamide]

Agonist character (full/partial) at FPR1 (h-FPR1): potent FPR1 full agonists
Compound: COc1ccc(NC(=O)N[C@@H](Cc2ccc(C#N)cc2)C(=O)NCC2(c3ccc(F)c(Cl)c3)CC2)cc1 [(S)-16, (S)-N-[[1-(3-Chloro-4-fluorophenyl)cyclopropyl]methyl]-3-(4-cyanophenyl)-2-[3-(4-methoxyphenyl)ureido]propanamide]
